# Test results from patent US8278436B2, “Glycosylated warfarin analogs and uses thereof” (priority 2008, dated 2012).
# Like-named read-outs stand apart in the source and are kept apart here.
# What was measured:
# Assay type in all cases: cell-based
# [1] = test system: A549 human lung adenocarcinoma cells; assay: cell proliferation assay, A549; details: read-out: A549 Lung (+p53)
# From the text: (§1) In this Example, the warfarin neoglycosides of the invention were screened for anti-tumor activity in cell proliferation assays using the following tumor cells lines: A549—human lung adenocarcinoma; H1299—human lung adenocarcinoma (p53 null); HCT-15—human colorectal adenocarcinoma; HT-29—human colorectal adenocarcinoma; MCF7—human breast adenocarcinoma; NCI-H460—human lung adenocarcinoma; SF-268—human CNS adenocarcinoma; and SKOV-3—human ovarian adenocarcinoma.
# (§2) All cell lines were maintained as previously reported (see Langenhan, J. M.; Peters, N. R.; Guzei, I. A.; Hoffmann, F. M.; Thorson, J. S. Proc. Natl. Acad. Sci. USA 2005, 102, 12305-12310, which is incorporated by reference herein). Cells were harvested using 0.25% trypsin and 0.1% EDTA and counted in a Cellometer Auto T4 cell counter (Nexcelom, Inc.) prior to dilution for assay plating. Cells were plated at a denity of 500 cells per well in 50 μL volumes in 384-well clear-bottom tissue culture plates (Corning-Costar, Inc.).
# (§3) Compounds were added from the 384-well compound stock plates at a 1:100 dilution using a Biomek FX liquid handler equipped with a 384-channel head (Beckman Coulter, Inc.). The plates were incubated for 7 days at 37° C. in a 5% CO2 atmosphere prior to performing the assays. Calcein AM (acetoxymethyl ester) reagent and EthD-1 (30 μL, 10 μM CAM and 100 μM EthD-1) was added and the cells were incubated for 30 min at 37° C. […] resulting from incubation with Calcein AM and EthD-1 was read using a Safire-2 microplate reader at the appropriate wavelengths. To lyse the cells, 15 μL of CellTiter-Glo reagent (Promega Corporation, Inc.) was added and the cells were incubated for 10 min at room temperature with gentle agitation. The luminescence of each plate was re-read to confirm the observed inhibition.
# (§4) IC50s for cell proliferation assays were determined for Calcein AM, the ratio of live/dead cells (Calcein AM/EthD-1), and CellTiter-Glo using XLfit 4.0 as previously described (see Langenhan, J. M.; Peters, N. R.; Guzei, I. A.; Hoffmann, F. M.; Thorson, J. S. Proc. Natl. Acad. Sci. USA 2005, 102, 12305-12310, which is incorporated by reference herein). The IC50 determined using the best fit curve for dosage response from any of the 3 assays is reported as the final IC50. The best fit curve is defined as the curve with the lowest standard error.
# [2] = test system: H1299 human lung adenocarcinoma (p53 null) cells; assay: cell proliferation assay, H1299
# From the text: as §1, §2, §3
# as §4, with “IC50.” for “IC50. The best fit curve is defined as the curve with the lowest standard error.”
# [3] = test system: HCT-15 human colorectal adenocarcinoma cells; assay: cell proliferation assay, HCT-15; details: Table 3 summary of most active compounds, IC50, read-out: HCT15 Colorectal
# From the text: as §1, §2, §3, §4
# [4] = test system: HT-29 human colorectal adenocarcinoma cells; assay: cell proliferation assay, HT-29
# From the text: as §1, §2, §3, §4
# [5] = test system: MCF7 human breast adenocarcinoma cells; assay: cell proliferation assay, MCF7
# From the text: as §1, §2, §3
# as §4, with “IC50.” for “IC50. The best fit curve is defined as the curve with the lowest standard error.”
# NCI/ADR-RES = assay: cell proliferation assay, NCI/ADR-RES; details: Table 3 summary of most active compounds
# Experimental: as §2, §3
# as §4, with “IC50.” for “IC50. The best fit curve is defined as the curve with the lowest standard error.”
# [6] = test system: NCI-H460 human lung adenocarcinoma cells; assay: cell proliferation assay, NCI-H460
# From the text: as §1, §2, §3, §4
# [7] = test system: SF-268 human CNS adenocarcinoma cells; assay: cell proliferation assay, SF-268
# From the text: as §1, §2, §3
# as §4, with “IC50.” for “IC50. The best fit curve is defined as the curve with the lowest standard error.”
# [8] = test system: SKOV-3 human ovarian adenocarcinoma cells; assay: cell proliferation assay, SKOV-3; details: read-out: SKOV3 Ovarian
# From the text: as §1, §2, §3, §4
# [9] = Table 3 summary of most active compounds, listed as L-lyxose
# [10] = Table 3 summary of most active compounds
# [11] = Table 3 summary of most active compounds, IC50, read-out: H729 Colorectal
# [12] = Table 3 summary of most active compounds, IC50, read-out: SF268 Giloblast
SMILES,"IC50 [1, 10]","IC50 [2, 10]",IC50 [3],"IC50 [4, 11]","IC50 [5, 10]",IC50 (NCI/ADR-RES),"IC50 [6, 10]","IC50 [7, 12]","IC50 [8, 10]",also measured
CON(C(C)CC(c1ccccc1)c1c(O)c2ccccc2oc1=O)C1OCC(O)C(O)C1O (mixture of isomers) [WARF Analog 23],–,–,–,–,–,–,–,–,–,"IC50 [1, 9]: 95 µM; IC50 [2, 9]: 30 µM; IC50 ([3]; listed as L-lyxose): 14 µM; IC50 ([4]; Table 3 summary of most active compounds, IC50, listed as L-lyxose, read-out: H729 Colorectal): 47 µM; IC50 [5, 9]: 18 µM; IC50 (NCI/ADR-RES; listed as L-lyxose): 56 µM; IC50 [6, 9]: > 100 µM; IC50 ([7]; Table 3 summary of most active compounds, IC50, listed as L-lyxose, read-out: SF268 Giloblast): > 100 µM; IC50 [8, 9]: 60 µM"
CON(C(C)CC(c1ccccc1)c1c(O)c2ccccc2oc1=O)C1CC(C)(O)C(O)C(C)O1 (mixture of isomers) [WARF Analog 37],> 100 µM,> 100 µM,16 µM,> 100 µM,> 100 µM,> 100 µM,> 100 µM,> 100 µM,> 100 µM,–
CON(C(C)CC(c1ccccc1)c1c(O)c2ccccc2oc1=O)C1C[C@@H](O)[C@@H](O)CO1 (stereo partly drawn) [WARF Analog 10],> 100 µM,77 µM,12 µM,88 µM,66 µM,92 µM,> 100 µM,> 100 µM,> 100 µM,–
"CONC(C)CC(c1ccccc1)c1c(O)c2ccccc2oc1=O (stereo not drawn) [WARF Analog C, 4-hydroxy-3-(3-(methoxyamino)-1-phenylbutyl)-2H-1-benzopyran-2-one]",–,–,–,–,–,–,–,–,–,"IC50 ([1]; Homo sapiens, A549, Table 3 summary of most active compounds): > 100 µM; IC50 ([2]; Homo sapiens, NCI-H1299, Table 3 summary of most active compounds): > 100 µM; IC50 ([3]; Homo sapiens, HCT-15): > 100 µM; IC50 ([4]; Homo sapiens, HT-29, read-out: H729 Colorectal): > 100 µM; IC50 ([5]; Homo sapiens, MCF7, Table 3 summary of most active compounds): > 100 µM; IC50 (NCI/ADR-RES; Homo sapiens): > 100 µM; IC50 ([6]; Homo sapiens, NCI-H460, Table 3 summary of most active compounds): > 100 µM; IC50 ([7]; Homo sapiens, SF-268, read-out: SF268 Giloblast): > 100 µM; IC50 ([8]; Homo sapiens, SK-OV-3, Table 3 summary of most active compounds): > 100 µM"
